# According to patent publication US8211912B2, “Compositions and methods for effecting NAD+ levels using a nicotinamide phosphoribosyl tranferase inhibitor” (Gemin X Pharmaceuticals Canada, priority 2007, dated 2012):
# Tests used:
# [1] = test system: Hs821.T giant cell sarcome; conditions: 0.01, 0.1 and 1 mM nicotinic acid
# [2] = test system: GCT MFH histiocytoma; conditions: 0.01, 0.1 and 1 mM nicotinic acid
# [3] = test system: A204 rhabdomyosarcoma; conditions: 0.01, 0.1 and 1 mM nicotinic acid
# [4] = test system: SW982 synovial sarcoma cell line; conditions: 0.01, 0.1 and 1 mM nicotinic acid
# Excerpt: In FIGS. 10 and 11, fraction of cell survived is indicated by the vertical axis (labeled as “% control”).
# [5] = test system: cancer cell lines
# [6] = test system: U-2OS osteosarcome; conditions: 0.01, 0.1 and 1 mM nicotinic acid
# [7] = test system: NAD^+ levels in HeLa cells; conditions: Compound 1 100 nM, 10 mM nicotinic acid
# Description: (§1) Viability was measured after 72 hours by ViaLight assay (assessing ATP levels). […] Each bar is the mean±SD of quadruplicate samples. Each figure is representative of two independent experiments.
# [8] = test system: NF-κB regulated gene expression in HeLa cells; conditions: Compound 1 100 nM, 10 mM nicotinic acid, 24 hrs then 4 hours TNFα
# Description: as §1
# [9] = test system: HT1080 fibrosarcoma; conditions: 0.01, 0.1 and 1 mM nicotinic acid
# [10] = test system: human multiple myeloma IM-9 cancer cells; assay: Xenograft of a cancer not deficient in nicotinic acid pathway; format: in vivo, CB17 SCID mice; conditions: nicotinic acid 120 mg/kg 4 hours infusion after Compound 2 150 mg/kg
# Description: Human multiple myeloma IM-9 cancer cells were maintained in RPMI (Hyclone, Utah, USA) supplemented with 10% inactivated fetal bovine serum (Bio-Whittaker; MD, USA) and 1% penicillin-streptomycin-L-Glutamine (Gibco; NY, USA), under 5% CO2 at 37° C. IM-9 cells were transplanted subcutaneously into the flank of female mice. Each mouse was inoculated with a suspension of 10×10^6 tumors cells per 100 μl in PBS on day zero.
# Treatments started on day eight after IM-9 cells transplantation. […] The control group was treated with vehicle (0.9% NaCl) alone for 104 hours. […] Compound 2 was prepared fresh for dosing and formulated in a vehicle solution of 10 mM citrate buffer at pH 4.8.
# Observation continued for 23 days after initial tumor implantation.
# [11] = test system: T98G (glioblastoma); conditions: 0.01, 0.1 and 1 mM nicotinic acid
# [12] = test system: Human Fibrosarcoma HT1080 cancer cells; assay: Xenograft of a cancer deficient in nicotinic acid pathway; format: in vivo, mice
# Description: Human Fibrosarcoma HT1080 cancer cells were maintained in RPMI (Hyclone, Utah, USA) supplemented with 10% inactivated fetal bovine serum (Bio-Whittaker, Md., USA) and 1% penicillin-streptomycin-L-Glutamine (Gibco; NY, USA), under 5% CO2 at 37° C. HT1080 cells were transplanted subcutaneously into the flank of female mice. Each mouse was inoculated with a suspension of 1×10^6 tumors cells per 100 μl in PBS on day zero.
# Treatments started on day fifteen after HT1080 cells transplantation. […] The control group was treated with vehicle (0.9% NaCl) alone for 104 hours. Treatments were conducted using Lomir External pump—Model 220 with a flow rate of 50 μL/hr (˜2.5 mL/kg/hr) and equipped with 1 cc syringes for treated groups or equipped with 10 cc syringes for the control group. Compound 2 was prepared fresh for dosing and formulated in a vehicle solution of 10 mM citrate buffer at pH 4.8.
# Observation continued for 22 days after initial tumor implantation.
# [13] = test system: MG-63 osteosarcoma; conditions: 0.01, 0.1 and 1 mM nicotinic acid
# [14] = test system: IMR32 (neuroblastoma); conditions: 0.01, 0.1 and 1 mM nicotinic acid
# [15] = test system: colon cancer cell line Colo320DM; conditions: the only one of fourteen other carcinomas
# [16] = test system: SW1353 chondrosarcoma; conditions: 0.01, 0.1 and 1 mM nicotinic acid
compound,measurement,setting,value
O=C(O)c1cccnc1 [nicotinic acid],Rescue from Compound 1 induced cytotoxicity by nicotinic acid,[1],not rescued
same,Rescue from Compound 1 induced cytotoxicity by nicotinic acid,[2],not rescued
same,Rescue from Compound 1 induced cytotoxicity by nicotinic acid,[3],not rescued
same,Rescue from Compound 1 induced cytotoxicity by nicotinic acid,[4],rescue
same,Percentage of sarcomas not being rescued,"[5]; 13 sarcoma cell lines, Compound 1 with nicotinic acid",60%
same,Neuroblastoma and glioblastoma cell lines not rescued by nicotinic acid,[5]; Compound 1 induced cytotoxicity,Two out of three
same,Number of sarcoma cell lines not rescued by nicotinic acid,"[5]; out of 13 sarcoma cell lines tested, Compound 1 with 0.01, 0.1 and 1 mM nicotinic acid",8
same,Rescue from Compound 1 induced cytotoxicity by nicotinic acid,[6],not rescued
same,Rescue from decline in NAD^+ levels,[7],can rescue
same,Rescue from NF-κB inhibition,[8],can rescue
same,Rescue from Compound 1 induced cytotoxicity by nicotinic acid,[9],not rescued
same,Effect of nicotinic acid on the anti-tumor activity of Compound 2,[10],able to inhibit the anti-tumor activity of Compound 2
same,Rescue from Compound 1 induced cytotoxicity by nicotinic acid,[11],not rescued
same,Effect of niacin on the anti-tumor activity of Compound 2,[12]; niacin 120 mg/kg 4 hours after Compound 2 150 mg/kg,unable to inhibit the anti-tumor activity of Compound 2
same,Effect of niacin on the anti-tumor activity of Compound 2,[12]; niacin 120 mg/kg 4 hours after Compound 2 650 mg/kg,did not inhibit the anti-tumor activity of Compound 2
same,Rescue from Compound 1 induced cytotoxicity by nicotinic acid,[13],not rescued
same,Rescue from Compound 1 induced cytotoxicity by nicotinic acid,[14],not rescued
same,Rescue from Compound 1 induced cytotoxicity by nicotinic acid,[15],not rescued
same,Rescue from Compound 1 induced cytotoxicity by nicotinic acid,[16],not rescued
